Target: MurA (Escherichia coli, UniProt P0A749)
Test: Direct adsorption scintillation assay (DASA) of the coupled MurA-MurB-MurC reaction, detection of enzyme inhibition
Assay type: biochemical
Procedure: A reaction mixture was prepared, of which 2 μl contains 38 ng MurA, 34 ng MurB, 34 ng MurC, 40 pmol ATP, 40 pmol UDP-NAcGlc, 40 pmol PEP, 40 pmol NADPH, 4 pmol L-[^3H]-alanine (72.3 Ci/mmol) in 50 mM Tris-HCl, pH 8, 20 mM MgCl2, 20 mM (NH4)2SO4, 1 mM DTT, 0.005% Brij-35. The mixture was incubated at room temperature for one hour. After one hour, 0.25 μl of the reaction mixture was transferred into each well of the poly-D-lysine coated FLASHPLATE™; each well contained 100 μl of 10 mM acetic acid, pH 3.0. The scintillation was counted using the TOPCOUNT™.
Enzyme mixtures (with 60 ng MurA, 8 ng MurB and 60 ng MurC present in each 2 μl sample) were prepared. The enzyme-phosphomycin mixture was pre-incubated at room temperature for 30 minutes. The substrates, as prepared in Example 2, were then added to the mixture to start the reaction. After 30 minutes of reaction at room temperature, 0.25 μl of the reaction mixture was transferred into each well of the poly-D-lysine coated FLASHPLATE™; each well contained 100 μl of 10 mM acetic acid. The scintillation was counted using the TOPCOUNT™.

Sequence of MurA (P0A749 whole entry): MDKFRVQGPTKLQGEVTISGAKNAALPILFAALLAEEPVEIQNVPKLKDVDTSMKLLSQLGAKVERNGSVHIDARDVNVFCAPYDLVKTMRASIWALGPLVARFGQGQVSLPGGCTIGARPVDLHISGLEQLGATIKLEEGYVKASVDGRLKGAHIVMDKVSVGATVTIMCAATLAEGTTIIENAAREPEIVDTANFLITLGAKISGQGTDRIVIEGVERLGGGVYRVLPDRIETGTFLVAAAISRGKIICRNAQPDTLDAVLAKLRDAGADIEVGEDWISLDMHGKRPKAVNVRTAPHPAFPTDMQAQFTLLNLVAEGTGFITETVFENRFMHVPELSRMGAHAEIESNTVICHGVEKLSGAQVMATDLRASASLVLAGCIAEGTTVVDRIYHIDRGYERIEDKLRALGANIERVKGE

C[C@@H]1O[C@@H]1P(=O)(O)O [phosphomycin]
scintillation count with increasing inhibitor concentration (FIG. 3) (60 ng MurA, 8 ng MurB, 60 ng MurC per 2 μl, 30 min pre-incubation at room temperature without UDP-NAcGlc, 30 min reaction, poly-D-lysine coated FLASHPLATE): decreased scintillation count
IC50 (pre-incubation carried out in the absence of UDP-NAc-Glu, qualitative statement, no number given): relatively high
